Patent US20070128217A1 (priority 2003, published 2007)

What was measured:
[1] = test system: antibodies in sera from SARS patients (sera 1a, 1b, 2, 6, 37, 62, London, SARS-yellow, SARS-green); format: binding, human; design: Binding of serum 6 to linear peptides of protein X1 of SARS-CoV Urbani / Binding of serum 37 to linear peptides of protein X1 of SARS-CoV Urbani / Binding of serum 6 to looped/cyclic peptide (PEPSCAN-ELISA) / Binding of serum 37 to looped/cyclic peptide (PEPSCAN-ELISA) / Binding of serum 37 to looped/cyclic peptides of protein X1 of SARS-CoV Urbani / Binding of serum 6 to linear peptides of protein X2 / Binding of serum 37 to linear peptides of protein X2 / Binding of serum 37 to looped/cyclic peptides of protein X2 of SARS-CoV Urbani / Binding of serum 6 to linear peptides of protein M of SARS-CoV Urbani / Binding of serum 37 to linear peptides of protein M of SARS-CoV Urbani / Binding of serum 6 to looped/cyclic peptides of protein M of SARS-CoV Urbani / Binding of serum 37 to looped/cyclic peptides of protein M of SARS-CoV Urbani / Binding of serum 6 to linear peptides of protein X3 of SARS-CoV Urbani / Binding of serum 37 to linear peptides of protein X3 of SARS-CoV Urbani / Binding of serum 37 to looped/cyclic peptides of protein X3 of SARS-CoV Urbani / Binding of serum 6 to linear peptides of protein X4 of SARS-CoV Urbani / Binding of serum 37 to linear peptides of protein X4 of SARS-CoV Urbani / Binding of serum 37 to looped/cyclic peptides of protein X4 of SARS-CoV Urbani / Binding of serum 6 to linear peptides of protein X5 of SARS-CoV Urbani / Binding of serum 37 to linear peptides of protein X5 of SARS-CoV Urbani / Binding of serum 37 to looped/cyclic peptides of protein X5 of SARS-CoV Urbani / Binding of serum 6 to linear peptides of protein N of SARS-CoV Urbani / Binding of serum 37 to linear peptides of protein N of SARS-CoV Urbani / Binding of serum 6 to linear peptide (PEPSCAN-ELISA) / Binding of serum 1a to looped/cyclic peptides of protein N of SARS-CoV Urbani / Binding of serum 1b to looped/cyclic peptides of protein N of SARS-CoV Urbani / Binding of serum 2 to looped/cyclic peptides of protein N of SARS-CoV Urbani / Binding of serum 6 to looped/cyclic peptides of protein N of SARS-CoV Urbani / Binding of serum 37 to looped/cyclic peptides of protein N of SARS-CoV Urbani / Binding of serum 62 to looped/cyclic peptides of protein N of SARS-CoV Urbani / Binding of serum London to looped/cyclic peptides of protein N of SARS-CoV Urbani / Binding of serum SARS-green to looped/cyclic peptides of protein N of SARS-CoV Urbani: unit not given here
[2] = test system: control sera (pooled serum of ten healthy LUMC hospital workers; commercial negative donor pooled serum from the Dutch bloodbank); format: binding, human; design: Binding of Control serum LUMC to linear peptides / Binding of Control serum Blood-bank to linear peptides / Binding of Control serum LUMC to looped peptides / Binding of Control Serum Blood-Bank to Looped peptides / Binding of Control serum LUMC to linear peptides of the protein M of SARS-CoV Urbani / Binding of Control serum Blood-bank to linear peptides of the protein M of SARS-CoV Urbani / Binding of Control serum LUMC to looped peptides of the protein M of SARS-CoV Urbani / Binding of Control Serum Blood-Bank to Looped peptides of the protein M of SARS-CoV Urbani: unit not given here
[3] = test system: rabbit serum obtained by immunizing a rabbit with the SARS-CoV strain Frankfurt 1; format: binding; design: Binding of a rabbit serum to linear peptides / Binding of a rabbit serum to looped peptides / Rabbit serum linear peptides / Rabbit serum looped peptides / Binding of a rabbit serum to linear peptides of protein N of SARS-CoV Urbani (Rabbit serum linear peptides) / Binding of a rabbit serum to looped/cyclic peptides of protein N of SARS-CoV Urbani (Rabbit serum looped peptides): unit not given here
[4] = test system: recombinant human anti-SARS-CoV antibody 03-018; format: binding; design: Binding of antibody 03-018 to linear peptides of the N protein of SARS-CoV Urbani / Binding of antibody 03-018 to looped/cyclic peptides of the N protein of SARS-CoV Urbani: unit not given here

| Sequence | Binding of serum 1a to linear peptide (PEPSCAN-ELISA) [1] | Binding of serum 1a to looped/cyclic peptides of protein N of SARS-CoV Urbani [1] | Binding of serum 1b to linear peptide (PEPSCAN-ELISA) [1] | Binding of serum 1b to looped/cyclic peptides of protein N of SARS-CoV Urbani [1] | Binding of serum 2 to linear peptide (PEPSCAN-ELISA) [1] | Binding of serum 2 to looped/cyclic peptides of protein N of SARS-CoV Urbani [1] | Binding of serum 6 to linear peptide (PEPSCAN-ELISA) [1] | Binding of serum 6 to looped/cyclic peptides of protein N of SARS-CoV Urbani [1] | Binding of serum 37 to linear peptide (PEPSCAN-ELISA) [1] | Binding of serum 37 to looped/cyclic peptides of protein N of SARS-CoV Urbani [1] | Binding of serum 62 to linear peptide (PEPSCAN-ELISA) [1] | Binding of serum 62 to looped/cyclic peptides of protein N of SARS-CoV Urbani [1] | Binding of serum London to linear peptide (PEPSCAN-ELISA) [1] | Binding of serum London to looped/cyclic peptides of protein N of SARS-CoV Urbani [1] | Binding of serum SARS-green to looped/cyclic peptides of protein N of SARS-CoV Urbani [1] | Binding of serum SARS-yellow to looped/cyclic peptides of protein N of SARS-CoV Urbani [1] | Binding of a rabbit serum to linear peptides of protein N of SARS-CoV Urbani (Rabbit serum linear peptides) [3] | Binding of a rabbit serum to looped/cyclic peptides of protein N of SARS-CoV Urbani (Rabbit serum looped peptides) [3] | Binding of antibody 03-018 to linear peptides of the N protein of SARS-CoV Urbani [4] | Binding of antibody 03-018 to looped/cyclic peptides of the N protein of SARS-CoV Urbani [4] | other results |
| --- | --- | --- | --- | --- | --- | --- | --- | --- | --- | --- | --- | --- | --- | --- | --- | --- | --- | --- | --- | --- | --- |
| VSGKGQQQQGQTVTK | 1.2 | 0.9 | 0.6 | 0.3 | 0.6 | 0.5 | 0.4 | 0.3 | 0.9 | 0.5 | 1.2 | 0.5 | 0.6 | 0.5 | 0.5 | 0.6 | 0.2 | 0.4 | 0.1 | 0.3 | Binding of serum SARS-green to linear peptide (PEPSCAN-ELISA) [1]: 0.5; Binding of serum SARS-yellow to linear peptide (PEPSCAN-ELISA) [1]: 1.0; Binding of Control Serum Blood-Bank to Looped peptides [2]: 0.7; Binding of Control serum Blood-bank to linear peptides [2]: 1.0; Binding of Control serum LUMC to linear peptides [2]: 1.4; Binding of Control serum LUMC to looped peptides [2]: 0.9 |
| VTLLPAADMDDFSRQ | – | 0.3 | – | 0.1 | – | 0.2 | – | 0.0 | – | 0.1 | – | 0.4 | – | 0.1 | 0.2 | 0.2 | 0.0 | 0.0 | 0.1 | 0.2 | Binding of serum 1a to linear peptides of protein N of SARS-CoV Urbani [1]: 0.3; Binding of serum 1b to linear peptides of protein N of SARS-CoV Urbani [1]: 0.1; Binding of serum 2 to linear peptides of protein N of SARS-CoV Urbani [1]: 0.2; Binding of serum 6 to linear peptides of protein N of SARS-CoV Urbani [1]: 0.1; Binding of serum 37 to linear peptides of protein N of SARS-CoV Urbani [1]: 0.6; Binding of serum 62 to linear peptides of protein N of SARS-CoV Urbani [1]: 0.6; Binding of serum London to linear peptides of protein N of SARS-CoV Urbani [1]: 0.6; Binding of serum SARS-green to linear peptides of protein N of SARS-CoV Urbani [1]: 0.3; Binding of serum SARS-yellow to linear peptides of protein N of SARS-CoV Urbani [1]: 0.6; Control Serum Blood-Bank Looped peptides [2]: 0.1; Control serum Blood-bank linear peptides [2]: 0.5; Control serum LUMC linear peptides [2]: 0.5; Control serum LUMC looped peptides [2]: 0.4 |
| VTPSGTWLTYHGAIK | – | 0.2 | – | 0.1 | – | 0.2 | – | 0.1 | – | 0.4 | – | 0.3 | – | 0.3 | 0.0 | 0.2 | 0.1 | 0.1 | 0.1 | 0.2 | Binding of serum 1a to linear peptides of protein N of SARS-CoV Urbani [1]: 0.3; Binding of serum 1b to linear peptides of protein N of SARS-CoV Urbani [1]: 0.1; Binding of serum 2 to linear peptides of protein N of SARS-CoV Urbani [1]: 0.2; Binding of serum 6 to linear peptides of protein N of SARS-CoV Urbani [1]: 0.2; Binding of serum 37 to linear peptides of protein N of SARS-CoV Urbani [1]: 0.7; Binding of serum 62 to linear peptides of protein N of SARS-CoV Urbani [1]: 0.8; Binding of serum London to linear peptides of protein N of SARS-CoV Urbani [1]: 0.7; Binding of serum SARS-green to linear peptides of protein N of SARS-CoV Urbani [1]: 0.5; Binding of serum SARS-yellow to linear peptides of protein N of SARS-CoV Urbani [1]: 0.5; Control Serum Blood-Bank Looped peptides [2]: 0.3; Control serum Blood-bank linear peptides [2]: 0.8; Control serum LUMC linear peptides [2]: 0.6; Control serum LUMC looped peptides [2]: 0.3 |
| VTQAFGRRGPEQTQG | 0.3 | 0.3 | 0.1 | 0.2 | 0.1 | 0.2 | 0.2 | 0.1 | 0.6 | 0.4 | 0.5 | 0.3 | 0.5 | 0.3 | 0.2 | 0.3 | – | – | 0.1 | 0.2 | Binding of serum SARS-green to linear peptide (PEPSCAN-ELISA) [1]: 0.5; Binding of serum SARS-yellow to linear peptide (PEPSCAN-ELISA) [1]: 0.7; Binding of Control Serum Blood-Bank to Looped peptides [2]: 0.6; Binding of Control serum Blood-bank to linear peptides [2]: 0.8; Binding of Control serum LUMC to linear peptides [2]: 0.7; Binding of Control serum LUMC to looped peptides [2]: 0.5; Recognition of the peptide by the rabbit serum [3]: recognized |
